Test results as given in PubChem BioAssay AID1845205 (Molecular Pharmacology Branch, DTP, NCI, 2023).

System: MPNST multicellular tumor spheroids, viability % test/control
Test: Anticancer human tumor MPNST cell line growth inhibition;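 also: spheroids exposed to agents for seven days after three days of growth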;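 as to viability, T/C: luminescence signal used as surrogate for viable cell amount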
Conditions: for IC50: curve of first compound; for viability, T/C: stronger effect = lower value
Outline: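 Complex tumor spheroids combined malignant cells with endothelial cells and mesenchymal stem cells. DNA-damaging drugs and DNA repair inhibitors were tested alone and in combination, at half-log dilutions down from clinical Cmax (top 10 microM if Cmax unknown), 0.25% DMSO final.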

[1] = second compound 1 µM, first compound 0.00949 µM
[2] = second compound 1 µM, first compound 0.03 µM
[3] = second compound 1 µM, first compound 0.0949 µM
[4] = second compound 1 µM, first compound 0.3 µM
[5] = second compound 1 µM, first compound 0.949 µM
[6] = second compound 1 µM, first compound 3 µM
[7] = second compound 3.16 µM, first compound 0.00949 µM
[8] = second compound 3.16 µM, first compound 0.03 µM
[9] = second compound 3.16 µM, first compound 0.0949 µM
[10] = second compound 3.16 µM, first compound 0.3 µM
[11] = second compound 3.16 µM, first compound 0.949 µM
[12] = second compound 3.16 µM, first compound 3 µM
[13] = second compound 10 µM, first compound 0.00949 µM
[14] = second compound 10 µM, first compound 0.03 µM
[15] = second compound 10 µM, first compound 0.0949 µM
[16] = second compound 10 µM, first compound 0.3 µM
[17] = second compound 10 µM, first compound 0.949 µM
[18] = second compound 10 µM, first compound 3 µM
[19] = second compound 31.6 µM, first compound 0.00949 µM
[20] = second compound 31.6 µM, first compound 0.03 µM
[21] = second compound 31.6 µM, first compound 0.0949 µM
[22] = second compound 31.6 µM, first compound 0.3 µM
[23] = second compound 31.6 µM, first compound 0.949 µM
[24] = second compound 31.6 µM, first compound 3 µM
[25] = second compound 100 µM, first compound 0.00949 µM
[26] = second compound 100 µM, first compound 0.03 µM
[27] = second compound 100 µM, first compound 0.0949 µM
[28] = second compound 100 µM, first compound 0.3 µM
[29] = second compound 100 µM, first compound 0.949 µM
[30] = second compound 100 µM, first compound 3 µM

Structure (SMILES): CNCc1ccc(-c2cc(-c3nc(-c4ccc(S(=O)(=O)C(C)C)cc4)cnc3N)on2)cc1 + Cn1nnc2c(C(N)=O)ncn2c1=O
- IC50 (second compound 1 µM): > 3 µM
- IC50 (second compound 3.16 µM): > 3 µM
- IC50 (second compound 10 µM): > 3 µM
- IC50 (second compound 31.6 µM): > 3 µM
- IC50 (second compound 100 µM): > 3 µM
- viability, T/C [1]: 110%
- viability, T/C [2]: 102%
- viability, T/C [3]: 83%
- viability, T/C [4]: 77.9%
- viability, T/C [5]: 63.1%
- viability, T/C [6]: 63.8%
- viability, T/C [7]: 125%
- viability, T/C [8]: 120%
- viability, T/C [9]: 97.9%
- viability, T/C [10]: 75.3%
- viability, T/C [11]: 64.8%
- viability, T/C [12]: 61.1%
- viability, T/C [13]: 95.6%
- viability, T/C [14]: 114%
- viability, T/C [15]: 98.5%
- viability, T/C [16]: 74.8%
- viability, T/C [17]: 71.8%
- viability, T/C [18]: 69.5%
- viability, T/C [19]: 105%
- viability, T/C [20]: 81.1%
- viability, T/C [21]: 79.8%
- viability, T/C [22]: 66.6%
- viability, T/C [23]: 58%
- viability, T/C [24]: 64.3%
- viability, T/C [25]: 92.1%
- viability, T/C [26]: 95.7%
- viability, T/C [27]: 83%
- viability, T/C [28]: 61.4%
- viability, T/C [29]: 58.5%
- viability, T/C [30]: 61.7%

Structure (SMILES): Cc1cc(C)c(CNC(=O)c2cc(-c3ccc(CN4CCOCC4)cc3)cc3c2cnn3C2CCCC2)c(=O)[nH]1 + Cn1nnc2c(C(N)=O)ncn2c1=O
- IC50 (second compound 1 µM): > 10 µM
- IC50 (second compound 3.16 µM): > 10 µM
- IC50 (second compound 10 µM): > 10 µM
- IC50 (second compound 31.6 µM): > 10 µM
- IC50 (second compound 100 µM): > 10 µM
- viability, T/C (second compound 1 µM, first compound 0.0316 µM): 95.9%
- viability, T/C (second compound 1 µM, first compound 0.1 µM): 82.8%
- viability, T/C (second compound 1 µM, first compound 0.316 µM): 101%
- viability, T/C (second compound 1 µM, first compound 1 µM): 92.7%
- viability, T/C (second compound 1 µM, first compound 3.16 µM): 115%
- viability, T/C (second compound 1 µM, first compound 10 µM): 98.6%
- viability, T/C (second compound 3.16 µM, first compound 0.0316 µM): 141%
- viability, T/C (second compound 3.16 µM, first compound 0.1 µM): 96.7%
- viability, T/C (second compound 3.16 µM, first compound 0.316 µM): 116%
- viability, T/C (second compound 3.16 µM, first compound 1 µM): 109%
- viability, T/C (second compound 3.16 µM, first compound 3.16 µM): 103%
- viability, T/C (second compound 3.16 µM, first compound 10 µM): 104%
- viability, T/C (second compound 10 µM, first compound 0.0316 µM): 75.3%
- viability, T/C (second compound 10 µM, first compound 0.1 µM): 90.9%
- viability, T/C (second compound 10 µM, first compound 0.316 µM): 107%
- viability, T/C (second compound 10 µM, first compound 1 µM): 91%
- viability, T/C (second compound 10 µM, first compound 3.16 µM): 109%
- viability, T/C (second compound 10 µM, first compound 10 µM): 103%
- viability, T/C (second compound 31.6 µM, first compound 0.0316 µM): 103%
- viability, T/C (second compound 31.6 µM, first compound 0.1 µM): 85.8%
- viability, T/C (second compound 31.6 µM, first compound 0.316 µM): 111%
- viability, T/C (second compound 31.6 µM, first compound 1 µM): 107%
- viability, T/C (second compound 31.6 µM, first compound 3.16 µM): 103%
- viability, T/C (second compound 31.6 µM, first compound 10 µM): 99.5%
- viability, T/C (second compound 100 µM, first compound 0.0316 µM): 99.1%
- viability, T/C (second compound 100 µM, first compound 0.1 µM): 97.5%
- viability, T/C (second compound 100 µM, first compound 0.316 µM): 96.9%
- viability, T/C (second compound 100 µM, first compound 1 µM): 109%
- viability, T/C (second compound 100 µM, first compound 3.16 µM): 97.9%
- viability, T/C (second compound 100 µM, first compound 10 µM): 88.4%

Structure (SMILES): Cc1sc2c(c1C)C(c1ccc(Cl)cc1)=NC(CC(=O)Nc1ccc(O)cc1)c1nnc(C)n1-2 (stereo not given) + Cn1nnc2c(C(N)=O)ncn2c1=O
- IC50 (second compound 1 µM): 1.44 µM
- IC50 (second compound 3.16 µM): 0.813 µM
- IC50 (second compound 10 µM): 1.79 µM
- IC50 (second compound 31.6 µM): > 3 µM
- IC50 (second compound 100 µM): 0.678 µM
- viability, T/C [1]: 123%
- viability, T/C [2]: 97.7%
- viability, T/C [3]: 78.7%
- viability, T/C [4]: 60.5%
- viability, T/C [5]: 51.3%
- viability, T/C [6]: 47.3%
- viability, T/C [7]: 96.7%
- viability, T/C [8]: 125%
- viability, T/C [9]: 92.4%
- viability, T/C [10]: 60.4%
- viability, T/C [11]: 49.7%
- viability, T/C [12]: 45.8%
- viability, T/C [13]: 102%
- viability, T/C [14]: 123%
- viability, T/C [15]: 93.8%
- viability, T/C [16]: 62.7%
- viability, T/C [17]: 50.7%
- viability, T/C [18]: 48.5%
- viability, T/C [19]: 95.6%
- viability, T/C [20]: 108%
- viability, T/C [21]: 91.7%
- viability, T/C [22]: 60%
- viability, T/C [23]: 50%
- viability, T/C [24]: 51.4%
- viability, T/C [25]: 91.5%
- viability, T/C [26]: 87%
- viability, T/C [27]: 83.2%
- viability, T/C [28]: 58.6%
- viability, T/C [29]: 47.3%
- viability, T/C [30]: 43.7%
